Experimental data taken from patent US9611221B2, “Histone demethylase inhibitors” (CELGENE QUANTICEL RESEARCH, INC., priority 2012, dated 2017).
pIC50: −log10 of the molar value.

Molecular target: JMJD2C (Homo sapiens (Human), UniProt Q9H3R0)
Assay: JMJD2C in vitro enzyme inhibition assay (TR-FRET)
Assay type: biochemical
Conditions: 0.3 nM JMJD2C, 300 nM H3K9me3-biotin peptide, 2 μM alpha-ketoglutaric acid
In short: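 Baculovirus-expressed JMJD2C (AA 2-372), 0.3 nM, with 300 nM biotin-H3K9me3 peptide and 2 μM alpha-ketoglutarate in pH 7.3 HEPES buffer with ascorbate and Fe(II); 30 min at room temperature.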

Sequence of JMJD2C (Q9H3R0 2-372): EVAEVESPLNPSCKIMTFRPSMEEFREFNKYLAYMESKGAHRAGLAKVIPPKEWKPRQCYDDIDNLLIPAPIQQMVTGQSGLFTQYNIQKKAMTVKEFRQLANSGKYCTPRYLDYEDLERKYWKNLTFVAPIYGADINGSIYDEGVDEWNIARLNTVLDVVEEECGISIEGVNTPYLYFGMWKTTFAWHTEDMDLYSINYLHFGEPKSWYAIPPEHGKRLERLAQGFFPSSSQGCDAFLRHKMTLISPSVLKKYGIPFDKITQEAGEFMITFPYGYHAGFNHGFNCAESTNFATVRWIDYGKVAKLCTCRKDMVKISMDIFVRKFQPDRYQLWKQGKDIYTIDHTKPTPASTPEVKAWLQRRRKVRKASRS

Compound | pIC50
O=C(O)c1ccncc1NCc1cccc(OCC2CC2)c1 [Example 37, 3-{[3-(cyclopropylmethoxy)benzyl]amino}pyridine-4-carboxylic acid] | 6.00 to 7.00
O=C(O)c1ccncc1NCc1coc2ccccc12 [Example 38, 3-[(1-benzofuran-3-ylmethyl)amino]pyridine-4-carboxylic acid] | 6.00 to 7.00
Cc1ccc(CNc2cnccc2C(=O)O)o1 [Example 40, 3-{[(5-methylfuran-2-yl)methyl]amino}pyridine-4-carboxylic acid] | ≥ 7.00
O=C(O)c1ccncc1NCC1CCCc2ccccc21 (stereo not drawn) [Example 46, 3-[(1,2,3,4-tetrahydronaphthalen-1-ylmethyl)amino]pyridine-4-carboxylic acid] | 6.00 to 7.00
O=C(O)c1ccncc1NC[C@H]1CCCc2ccccc21 [Example 47, 3-{[(1S)-1,2,3,4-tetrahydronaphthalen-1-ylmethyl]amino}pyridine-4-carboxylic acid] | 6.00 to 7.00
CC1(CNc2cnccc2C(=O)O)CCCc2ccccc21 (stereo not drawn) [Example 49, 3-{[(1-methyl-1,2,3,4-tetrahydronaphthalen-1-yl)methyl]amino}pyridine-4-carboxylic acid] | 6.00 to 7.00
O=C(O)c1ccncc1NCC1CCCc2ccc(C3CC3)cc21 (stereo not drawn) [Example 53, 3-{[(7-cyclopropyl-1,2,3,4-tetrahydronaphthalen-1-yl)methyl]amino}pyridine-4-carboxylic acid] | 6.00 to 7.00
O=C(O)c1ccncc1NCC1CCOc2ccccc21 (stereo not drawn) [Example 58, 3-[(3,4-dihydro-2H-chromen-4-ylmethyl)amino]pyridine-4-carboxylic acid] | ≥ 7.00
COc1ccc2c(c1)CCCC2CNc1cnccc1C(=O)O (stereo not drawn) [Example 60, 3-{[(6-methoxy-1,2,3,4-tetrahydronaphthalen-1-yl)methyl]amino}pyridine-4-carboxylic acid] | 6.00 to 7.00

Now from value to compound:

pIC50 | Compound
6.00 to 7.00 | O=C(O)c1ccncc1NCc1cccc(OC(F)(F)F)c1 [Example 35, 3-{[3-(trifluoromethoxy)benzyl]amino}pyridine-4-carboxylic acid]
6.00 to 7.00 | O=C(O)c1ccncc1NCc1ccccc1Nc1ccccc1 [Example 36, 3-{[2-(phenylamino)benzyl]amino}pyridine-4-carboxylic acid]
≥ 7.00 | O=C(O)c1ccncc1NCc1cc2ccccc2o1 [Example 41, 3-[(1-benzofuran-2-ylmethyl)amino]pyridine-4-carboxylic acid]
≥ 7.00 | O=C(O)c1ccncc1NCC12CC3CC(CC(C3)C1)C2 [Example 42, 3-[(adamantan-1-ylmethyl)amino]pyridine-4-carboxylic acid]
≥ 7.00 | O=C(O)c1ccncc1NCC1Cc2ccccc2O1 (stereo not drawn) [Example 43, 3-[(2,3-dihydro-1-benzofuran-2-ylmethyl)amino]pyridine-4-carboxylic acid]
≥ 7.00 | O=C(O)c1ccncc1NCC1COc2ccccc2O1 (stereo not drawn) [Example 44, 3-[(2,3-dihydro-1,4-benzodioxin-2-ylmethyl)amino]pyridine-4-carboxylic acid]
6.00 to 7.00 | O=C(O)c1ccncc1NC[C@@H]1CCCc2ccccc21 [Example 48, 3-{[(1R)-1,2,3,4-tetrahydronaphthalen-1-ylmethyl]amino}pyridine-4-carboxylic acid]
6.00 to 7.00 | Cc1ccc2c(c1)C(CNc1cnccc1C(=O)O)CCO2 (stereo not drawn) [Example 63, 3-{[(6-methyl-3,4-dihydro-2H-chromen-4-yl)methyl]amino}pyridine-4-carboxylic acid]

Molecular target: Jarid1B (Homo sapiens (Human), UniProt Q9UGL1)
Sequence (Q9UGL1 2-751): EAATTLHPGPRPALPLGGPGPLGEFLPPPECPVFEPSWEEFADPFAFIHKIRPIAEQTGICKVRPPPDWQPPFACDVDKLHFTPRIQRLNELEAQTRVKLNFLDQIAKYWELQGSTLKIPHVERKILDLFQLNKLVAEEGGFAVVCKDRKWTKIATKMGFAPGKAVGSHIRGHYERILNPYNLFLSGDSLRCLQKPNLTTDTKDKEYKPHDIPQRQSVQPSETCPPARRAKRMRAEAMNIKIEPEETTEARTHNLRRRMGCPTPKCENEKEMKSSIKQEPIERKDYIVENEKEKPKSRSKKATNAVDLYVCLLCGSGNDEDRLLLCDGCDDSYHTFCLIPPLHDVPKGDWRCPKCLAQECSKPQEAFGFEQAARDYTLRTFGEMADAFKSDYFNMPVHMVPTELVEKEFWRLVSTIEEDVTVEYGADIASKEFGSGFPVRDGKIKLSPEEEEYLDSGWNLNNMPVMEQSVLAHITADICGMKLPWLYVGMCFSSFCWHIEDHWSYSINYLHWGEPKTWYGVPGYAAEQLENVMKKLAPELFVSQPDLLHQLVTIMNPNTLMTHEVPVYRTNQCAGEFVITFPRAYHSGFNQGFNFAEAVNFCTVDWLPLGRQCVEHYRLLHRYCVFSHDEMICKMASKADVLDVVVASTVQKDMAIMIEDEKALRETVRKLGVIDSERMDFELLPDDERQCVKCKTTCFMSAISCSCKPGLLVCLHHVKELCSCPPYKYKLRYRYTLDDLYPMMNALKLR
Assay: Jarid1B in vitro enzyme inhibition assay (TR-FRET)
Assay type: biochemical
Conditions: 0.8 nM Jarid1B, 300 nM H3K4me3-biotin peptide, 2 μM alpha-ketoglutaric acid
Excerpt: (§1) This assay determines the ability of a test compound to inhibit Jarid1A, Jarid1B, and JMJD2C demethylase activity. Baculovirus expressed Jarid1A (GenBank Accession #NM_001042603, AA1-1090) was purchased from BPS Bioscience (Cat#50110). Baculovirus expressed Jarid1B (GenBank Accession #NM_006618, AA 2-751) was purchased from BPS Bioscience (Cat #50121) or custom made by MolecularThroughput. Baculovirus expressed JMJD2C (GenBank Accession #BC143571, AA 2-372) was purchased from BPS Bioscience (Cat#50105).
(§2) The ability of test compounds to inhibit the activity of Jarid1B was determined in 384-well plate format under the following reaction conditions: 0.8 nM Jarid1B, 300 nM H3K4me3-biotin labeled peptide (Anaspec cat #64357), 2 μM alpha-ketoglutaric acid in assay buffer of 50 mM HEPES, pH7.3, 0.005% Brij35, 0.5 mM TCEP, 0.2 mg/ml BSA, 50 μM sodium L-ascorbate, and 2 μM ammonium iron(II) sulfate. Reaction product was determined quantitatively by TR-FRET after the addition of detection reagent Phycolink Streptavidin-allophycocyanin (Prozyme) and Europium-anti-mono- or di-methylated histone H3 lysine 4 (H3K4me1-2) antibody (PerkinElmer) in the presence of 5 mM EDTA in LANCE detection buffer (PerkinElmer) at a final concentration of 25 nM and 1 nM, respectively.
(§3) The reaction mixture was incubated at room temperature for 30 minutes, and terminated by the addition of 6 μl of 5 mM EDTA in LANCE detection buffer containing 50 nM Phycolink Streptavidin-allophycocyanin and 2 nM Europium-anti-H3K4me1-2 antibody. Plates were read by EnVisionMultilabel Reader in TR-FRET mode (excitation at 320 nm, emission at 615 nm and 665 nm) after 1 hour incubation at room temperature. A ratio was calculated (665/615) for each well and fitted to determine inhibition constant (IC50).

Compound | pIC50
O=C(O)c1ccncc1NCc1cccc(OCC2CC2)c1 [Example 37, 3-{[3-(cyclopropylmethoxy)benzyl]amino}pyridine-4-carboxylic acid] | ≥ 7.00
O=C(O)c1ccncc1NCc1coc2ccccc12 [Example 38, 3-[(1-benzofuran-3-ylmethyl)amino]pyridine-4-carboxylic acid] | ≥ 7.00
Cc1ccc(CNc2cnccc2C(=O)O)o1 [Example 40, 3-{[(5-methylfuran-2-yl)methyl]amino}pyridine-4-carboxylic acid] | ≥ 7.00
O=C(O)c1ccncc1NCC1CCCc2ccccc21 (stereo not drawn) [Example 46, 3-[(1,2,3,4-tetrahydronaphthalen-1-ylmethyl)amino]pyridine-4-carboxylic acid] | ≥ 7.00
O=C(O)c1ccncc1NC[C@H]1CCCc2ccccc21 [Example 47, 3-{[(1S)-1,2,3,4-tetrahydronaphthalen-1-ylmethyl]amino}pyridine-4-carboxylic acid] | ≥ 7.00
CC1(CNc2cnccc2C(=O)O)CCCc2ccccc21 (stereo not drawn) [Example 49, 3-{[(1-methyl-1,2,3,4-tetrahydronaphthalen-1-yl)methyl]amino}pyridine-4-carboxylic acid] | 6.00 to 7.00
O=C(O)c1ccncc1NCC1CCCc2ccc(C3CC3)cc21 (stereo not drawn) [Example 53, 3-{[(7-cyclopropyl-1,2,3,4-tetrahydronaphthalen-1-yl)methyl]amino}pyridine-4-carboxylic acid] | ≥ 7.00
O=C(O)c1ccncc1NCC1CCOc2ccccc21 (stereo not drawn) [Example 58, 3-[(3,4-dihydro-2H-chromen-4-ylmethyl)amino]pyridine-4-carboxylic acid] | ≥ 7.00
COc1ccc2c(c1)CCCC2CNc1cnccc1C(=O)O (stereo not drawn) [Example 60, 3-{[(6-methoxy-1,2,3,4-tetrahydronaphthalen-1-yl)methyl]amino}pyridine-4-carboxylic acid] | ≥ 7.00

Next, values leading:

pIC50 | Compound
6.00 to 7.00 | O=C(O)c1ccncc1NCc1cccc(OC(F)(F)F)c1 [Example 35, 3-{[3-(trifluoromethoxy)benzyl]amino}pyridine-4-carboxylic acid]
≥ 7.00 | O=C(O)c1ccncc1NCc1ccccc1Nc1ccccc1 [Example 36, 3-{[2-(phenylamino)benzyl]amino}pyridine-4-carboxylic acid]
≥ 7.00 | O=C(O)c1ccncc1NCc1cc2ccccc2o1 [Example 41, 3-[(1-benzofuran-2-ylmethyl)amino]pyridine-4-carboxylic acid]
6.00 to 7.00 | O=C(O)c1ccncc1NCC12CC3CC(CC(C3)C1)C2 [Example 42, 3-[(adamantan-1-ylmethyl)amino]pyridine-4-carboxylic acid]
≥ 7.00 | O=C(O)c1ccncc1NCC1Cc2ccccc2O1 (stereo not drawn) [Example 43, 3-[(2,3-dihydro-1-benzofuran-2-ylmethyl)amino]pyridine-4-carboxylic acid]
≥ 7.00 | O=C(O)c1ccncc1NCC1COc2ccccc2O1 (stereo not drawn) [Example 44, 3-[(2,3-dihydro-1,4-benzodioxin-2-ylmethyl)amino]pyridine-4-carboxylic acid]
6.00 to 7.00 | O=C(O)c1ccncc1NC[C@@H]1CCCc2ccccc21 [Example 48, 3-{[(1R)-1,2,3,4-tetrahydronaphthalen-1-ylmethyl]amino}pyridine-4-carboxylic acid]
≥ 7.00 | Cc1ccc2c(c1)C(CNc1cnccc1C(=O)O)CCO2 (stereo not drawn) [Example 63, 3-{[(6-methyl-3,4-dihydro-2H-chromen-4-yl)methyl]amino}pyridine-4-carboxylic acid]

Molecular target: Jarid1A (Homo sapiens (Human), UniProt P29375)
Sequence (P29375 1-1090): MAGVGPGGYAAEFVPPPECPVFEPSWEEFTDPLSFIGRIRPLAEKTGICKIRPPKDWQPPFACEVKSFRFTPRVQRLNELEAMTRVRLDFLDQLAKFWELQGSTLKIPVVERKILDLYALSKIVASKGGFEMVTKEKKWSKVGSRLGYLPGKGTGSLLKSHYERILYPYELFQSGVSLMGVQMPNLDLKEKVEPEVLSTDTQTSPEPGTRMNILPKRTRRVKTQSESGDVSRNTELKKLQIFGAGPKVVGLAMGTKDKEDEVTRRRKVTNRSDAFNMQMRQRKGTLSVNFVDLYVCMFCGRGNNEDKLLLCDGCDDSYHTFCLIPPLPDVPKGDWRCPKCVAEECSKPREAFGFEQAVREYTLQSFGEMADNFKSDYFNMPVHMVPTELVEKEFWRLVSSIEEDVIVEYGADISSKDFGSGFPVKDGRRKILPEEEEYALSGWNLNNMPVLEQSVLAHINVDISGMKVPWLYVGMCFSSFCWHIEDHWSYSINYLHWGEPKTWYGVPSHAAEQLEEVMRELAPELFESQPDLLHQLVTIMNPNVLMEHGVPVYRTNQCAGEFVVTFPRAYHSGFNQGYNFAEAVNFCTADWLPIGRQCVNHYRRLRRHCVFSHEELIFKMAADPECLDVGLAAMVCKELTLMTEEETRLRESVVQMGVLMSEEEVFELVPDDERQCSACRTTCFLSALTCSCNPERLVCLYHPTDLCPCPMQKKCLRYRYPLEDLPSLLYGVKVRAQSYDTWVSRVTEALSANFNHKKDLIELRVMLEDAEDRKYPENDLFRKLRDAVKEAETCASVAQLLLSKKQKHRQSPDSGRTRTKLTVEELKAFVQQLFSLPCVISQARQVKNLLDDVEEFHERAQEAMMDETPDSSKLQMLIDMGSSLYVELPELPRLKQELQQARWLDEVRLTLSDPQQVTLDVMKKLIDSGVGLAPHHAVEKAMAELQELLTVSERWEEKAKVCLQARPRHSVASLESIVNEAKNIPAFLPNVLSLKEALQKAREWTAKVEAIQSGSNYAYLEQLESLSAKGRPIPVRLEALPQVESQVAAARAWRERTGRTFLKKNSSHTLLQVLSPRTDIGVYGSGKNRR
Assay: Jarid1A in vitro enzyme inhibition assay (TR-FRET)
Assay type: biochemical
Conditions: 1 nM Jarid1A, 300 nM H3K4me3-biotin peptide, 2 μM alpha-ketoglutaric acid
Excerpt: as §1
as §2, with “The enzymatic assay of Jarid1A activity is based upon Time Resolved-Fluorescence Resonance Energy Transfer (TR-FRET) detection. The” for “The”, “Jarid1A” for “Jarid1B”, “1” for “0.8”, “Jarid1A,” for “Jarid1B,”
as §3

Compound | pIC50
O=C(O)c1ccncc1NCc1cccc(OCC2CC2)c1 [Example 37, 3-{[3-(cyclopropylmethoxy)benzyl]amino}pyridine-4-carboxylic acid] | 6.00 to 7.00
O=C(O)c1ccncc1NCc1coc2ccccc12 [Example 38, 3-[(1-benzofuran-3-ylmethyl)amino]pyridine-4-carboxylic acid] | ≥ 7.00
Cc1ccc(CNc2cnccc2C(=O)O)o1 [Example 40, 3-{[(5-methylfuran-2-yl)methyl]amino}pyridine-4-carboxylic acid] | ≥ 7.00
O=C(O)c1ccncc1NCC1CCCc2ccccc21 (stereo not drawn) [Example 46, 3-[(1,2,3,4-tetrahydronaphthalen-1-ylmethyl)amino]pyridine-4-carboxylic acid] | ≥ 7.00
O=C(O)c1ccncc1NC[C@H]1CCCc2ccccc21 [Example 47, 3-{[(1S)-1,2,3,4-tetrahydronaphthalen-1-ylmethyl]amino}pyridine-4-carboxylic acid] | ≥ 7.00
CC1(CNc2cnccc2C(=O)O)CCCc2ccccc21 (stereo not drawn) [Example 49, 3-{[(1-methyl-1,2,3,4-tetrahydronaphthalen-1-yl)methyl]amino}pyridine-4-carboxylic acid] | 6.00 to 7.00
O=C(O)c1ccncc1NCC1CCCc2ccc(C3CC3)cc21 (stereo not drawn) [Example 53, 3-{[(7-cyclopropyl-1,2,3,4-tetrahydronaphthalen-1-yl)methyl]amino}pyridine-4-carboxylic acid] | ≥ 7.00
O=C(O)c1ccncc1NCC1CCOc2ccccc21 (stereo not drawn) [Example 58, 3-[(3,4-dihydro-2H-chromen-4-ylmethyl)amino]pyridine-4-carboxylic acid] | ≥ 7.00
COc1ccc2c(c1)CCCC2CNc1cnccc1C(=O)O (stereo not drawn) [Example 60, 3-{[(6-methoxy-1,2,3,4-tetrahydronaphthalen-1-yl)methyl]amino}pyridine-4-carboxylic acid] | ≥ 7.00

The remaining lines, values ahead:

pIC50 | Compound
6.00 to 7.00 | O=C(O)c1ccncc1NCc1cccc(OC(F)(F)F)c1 [Example 35, 3-{[3-(trifluoromethoxy)benzyl]amino}pyridine-4-carboxylic acid]
≥ 7.00 | O=C(O)c1ccncc1NCc1ccccc1Nc1ccccc1 [Example 36, 3-{[2-(phenylamino)benzyl]amino}pyridine-4-carboxylic acid]
≥ 7.00 | O=C(O)c1ccncc1NCc1cc2ccccc2o1 [Example 41, 3-[(1-benzofuran-2-ylmethyl)amino]pyridine-4-carboxylic acid]
6.00 to 7.00 | O=C(O)c1ccncc1NCC12CC3CC(CC(C3)C1)C2 [Example 42, 3-[(adamantan-1-ylmethyl)amino]pyridine-4-carboxylic acid]
≥ 7.00 | O=C(O)c1ccncc1NCC1Cc2ccccc2O1 (stereo not drawn) [Example 43, 3-[(2,3-dihydro-1-benzofuran-2-ylmethyl)amino]pyridine-4-carboxylic acid]
≥ 7.00 | O=C(O)c1ccncc1NCC1COc2ccccc2O1 (stereo not drawn) [Example 44, 3-[(2,3-dihydro-1,4-benzodioxin-2-ylmethyl)amino]pyridine-4-carboxylic acid]
6.00 to 7.00 | O=C(O)c1ccncc1NC[C@@H]1CCCc2ccccc21 [Example 48, 3-{[(1R)-1,2,3,4-tetrahydronaphthalen-1-ylmethyl]amino}pyridine-4-carboxylic acid]
≥ 7.00 | Cc1ccc2c(c1)C(CNc1cnccc1C(=O)O)CCO2 (stereo not drawn) [Example 63, 3-{[(6-methyl-3,4-dihydro-2H-chromen-4-yl)methyl]amino}pyridine-4-carboxylic acid]
